“And” between values parts separate entries of the source, which are not always exact repeats. Equal values may be shown once.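 Briefly, cells in 96-well plates were exposed to five compound concentrations for 48 h, and endpoints were estimated by linear interpolation. Here, GI50 denotes the concentration required for 50% inhibition of growth. Definition used: TGI = concentration required for complete inhibition of growth.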
Assays:
Assay in all cases: growth of human tumour cells (NCI), 48 h
A549 NSCLC = tested on: A549 NSCLC
ACHN renal = tested on: ACHN renal
HT29 colon = tested on: HT29 colon
M14 melanoma = tested on: M14 melanoma
MALME-3M melanoma = tested on: MALME-3M melanoma
NCI-H460 lung = tested on: NCI-H460 lung
PC-3 prostate = tested on: PC-3 prostate
SF-295 CNS = tested on: SF-295 CNS
TK-10 renal = tested on: TK-10 renal
UO-31 renal = tested on: UO-31 renal

Structure (SMILES) | GI50 (A549 NSCLC) | TGI (A549 NSCLC) [µM] | GI50 (ACHN renal) | TGI (ACHN renal) [µM] | GI50 (HT29 colon) [µM] | TGI (HT29 colon) [µM] | GI50 (M14 melanoma) | TGI (M14 melanoma) | GI50 (MALME-3M melanoma) [µM] | TGI (MALME-3M melanoma) [µM] | GI50 (NCI-H460 lung) | TGI (NCI-H460 lung) | GI50 (PC-3 prostate) [µM] | TGI (PC-3 prostate) | GI50 (SF-295 CNS) | TGI (SF-295 CNS) | GI50 (TK-10 renal) [µM] | TGI (TK-10 renal) [µM] | GI50 (UO-31 renal) | TGI (UO-31 renal) [µM]
CC(C)c1[nH]nc2c(NCc3ccc(-c4ccccn4)cc3)nc(SCCN)nc12 | 0.0306 µM and 0.0159 µM | 12.2 | 0.273 µM and 0.286 µM | 4.7 | 0.00503 | 10.1 | 0.0155 µM and 0.0181 µM | 0.151 µM and 1.16 µM | 0.016 | 0.0598 | 0.0381 µM and 0.0356 µM | 2.05 µM and 10 µM | 0.0257 | 4.11 µM and 12.3 µM | 0.0391 µM and 0.0425 µM | 0.712 µM and 2.03 µM | 0.155 | 10.1 | 0.186 µM and 0.402 µM | 
O=C1c2ccn(CCCNC(CO)(CO)CO)c2C(=O)c2c1c(O)c1ccccc1c2O | 16.9 µM | 36.8 | 13.6 µM | 28.2 | 15.4 | > 46.3 | 14.1 µM | 30.1 µM | 22.7 | 74.3 | 10.2 µM | 29.3 µM | 14.6 | 35.8 µM | 15 µM | > 49.8 µM | 1.32 | 22.6 | 13.4 µM | 30.3
Cc1cc(N(CCC#N)CCC#N)ccc1/C=C(\NC(=O)/C=C/c1ccccc1)C(=O)Nc1ccc(Cl)cc1 |  | > 100 |  | > 100 |  | > 100 |  | > 100 µM |  | > 50.9 |  | > 100 µM |  | > 100 µM |  | > 100 µM |  | > 100 |  | > 100
Cc1nn(Cc2ccccc2)cc1C(=O)Nc1sc2c(c1C(N)=O)CCC(=O)C2 | 4.39 µM | > 100 | 1.65 µM | 3.35 | 2.27 | 6.58 | 3.42 µM | 14.4 µM | 1.89 | 3.79 | 3.52 µM | 21.2 µM | 0.752 | 5.14 µM | 2.68 µM | 8.07 µM | 3.33 | 26.4 | 1.39 µM | 2.88
OC(CN1CCCC2CCCCC21)c1cc2ccccc2c2ccccc12 (centres undefined) | 4.65 µM | 19.1 | 3 µM | 10.1 | 1.32 | 3.07 | 1.52 µM | 2.86 µM | 1.53 | 3.45 | 1.83 µM | 3.53 µM | 2.27 | 10.1 µM | 1.45 µM | 3.21 µM | 2.3 | 7.66 | 1.44 µM | 7.41
CC1=CC(C)(C)Nc2ccc(Cc3ccc4c(c3)C(C)=CC(C)(C)N4)cc21 | 12.2 µM | > 100 | 11.1 µM | > 100 | 12.2 | > 100 | 28.4 µM | > 100 µM | 11.8 | 42 | 12 µM | 55.1 µM | 4.26 | > 100 µM | 9.78 µM | > 100 µM | 16.8 | 92.8 | 7.27 µM | 65.8
C=C1C(=O)O[C@H]2[C@H]1CC/C(COC(=O)CCCCCCCC(=O)OC/C1=C/CC[C@@]3(C)O[C@H]3[C@H]3OC(=O)C(=C)[C@@H]3CC1)=C\CC[C@@]1(C)O[C@@H]21 | 11.1 µM | 28.8 | 1.85 µM | 5.51 | 2.02 | 4.23 | 1.77 µM | 4.11 µM | 2.17 | 5.3 | 3.06 µM | 9.1 µM | 1.96 | 4.62 µM | 3.6 µM | 15.2 µM | 2.94 | 7.03 | 1.5 µM | 3.79
COc1cc2c(NC3CCN(C(C)C)CC3)nc(C3CCCCC3)nc2cc1OCCCN1CCCC1 | 3.38 µM | 13.3 | 10.4 µM | 23 | 1.49 | 3.86 | 1.71 µM | 3.26 µM | 1.8 | 3.42 | 3.45 µM | 12.9 µM | 7.09 | 22.4 µM | 2.52 µM | 6.55 µM | 2.15 | 5.54 | 14.1 µM | 28.1
CSc1nnc(-c2cc3c([nH]c4ccccc43)c(-c3cccc(O)c3)n2)n1-c1ccc(C)cc1 | 3.79 µM | 24.6 | 2.11 µM | 6.06 | 3.39 | > 100 | 3.83 µM | > 100 µM | 1.88 | 5.4 | 3.31 µM | 14.6 µM | 3.58 | 23 µM | 2.59 µM | 9.62 µM | 3.01 | 9.64 | 1.93 µM | 29.1

— PubChem BioAssay (NCI)
